Data set [1] is described as follows: Plasma pharmacokinetics in mice after oral administration. The format is in vivo. The conditions noted are these: mouse, male C57/Bl6 mice, oral 10 mg/kg; for AUC: sampling 15 min to 7 h, log-linear trapezoidal method, read-out: AUCplasma; for Cmax: suspension in 1% methylcellulose/0.1% Poloxamer 188. A digest of the protocol: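 Male C57/B16 mice (25-30 g, fed, 9 per dose) received 10 mg/kg by oral gavage as a suspension in 1% methylcellulose 400 cps/0.1% Poloxamer 188/water. Plasma was sampled at 15 min, 30 min, 1 h, 3 h and 7 h and quantified by LC-MS/MS after protein precipitation. Parameters were derived non-compartmentally, with AUC by the log-linear trapezoidal method.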

The next data set deals with T1, NURR-1/RXRα (Homo sapiens, UniProt P19793).
T1 construct: expressed in transfected cells; host or cells: Cos-7 cells
T1 sequence (P19793 whole entry): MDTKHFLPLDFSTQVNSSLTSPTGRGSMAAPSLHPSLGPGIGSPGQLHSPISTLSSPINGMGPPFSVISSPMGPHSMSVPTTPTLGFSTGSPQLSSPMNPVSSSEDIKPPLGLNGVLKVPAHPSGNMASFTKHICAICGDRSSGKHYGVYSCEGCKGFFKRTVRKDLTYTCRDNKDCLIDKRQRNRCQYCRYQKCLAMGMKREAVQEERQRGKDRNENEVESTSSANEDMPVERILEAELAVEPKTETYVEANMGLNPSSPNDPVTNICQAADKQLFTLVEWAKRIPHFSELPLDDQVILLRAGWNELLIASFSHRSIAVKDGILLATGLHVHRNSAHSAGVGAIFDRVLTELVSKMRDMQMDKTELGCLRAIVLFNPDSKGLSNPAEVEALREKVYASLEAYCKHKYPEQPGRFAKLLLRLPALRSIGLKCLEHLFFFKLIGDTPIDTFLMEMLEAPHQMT
T1 sequence (P43354 whole entry partner): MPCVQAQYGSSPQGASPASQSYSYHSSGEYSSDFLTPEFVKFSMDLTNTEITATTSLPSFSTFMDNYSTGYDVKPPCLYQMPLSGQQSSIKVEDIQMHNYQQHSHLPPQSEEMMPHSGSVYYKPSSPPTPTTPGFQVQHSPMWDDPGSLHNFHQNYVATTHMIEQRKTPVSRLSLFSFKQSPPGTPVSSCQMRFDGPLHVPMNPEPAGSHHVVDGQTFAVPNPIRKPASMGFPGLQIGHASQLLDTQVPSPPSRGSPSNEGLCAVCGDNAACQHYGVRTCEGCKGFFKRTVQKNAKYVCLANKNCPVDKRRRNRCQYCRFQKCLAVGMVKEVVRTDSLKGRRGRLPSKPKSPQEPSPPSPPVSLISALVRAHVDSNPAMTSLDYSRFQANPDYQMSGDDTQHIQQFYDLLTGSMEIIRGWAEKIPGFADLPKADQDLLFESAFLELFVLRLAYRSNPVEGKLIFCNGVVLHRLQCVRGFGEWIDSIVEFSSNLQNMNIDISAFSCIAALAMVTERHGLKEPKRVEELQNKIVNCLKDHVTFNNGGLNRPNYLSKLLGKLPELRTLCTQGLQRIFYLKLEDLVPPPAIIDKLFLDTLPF
T1 sequence (P04386 1-147 partner limits assumed): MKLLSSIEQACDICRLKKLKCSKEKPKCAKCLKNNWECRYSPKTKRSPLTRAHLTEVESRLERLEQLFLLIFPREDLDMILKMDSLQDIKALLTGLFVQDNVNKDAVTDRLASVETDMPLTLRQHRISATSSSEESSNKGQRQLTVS
Description: Transactivation test, NURR-1-Gal4/RXRα, luciferase reporter in Cos-7 cells. The data set is classed as cell-based. To be noted: for Emax: COS-7, induction level relative to reference XCT0135908 at 2×10^−5 M (=100%), read-out: hNurr1_RXRaFL Emax (%); for EC50: Cos-7 cells, NURR-1-Gal4/RXRα, luciferase reporter, read-out: hNurr1_RXRaFL EC50. (A reporter such as luciferase makes a cellular process visible.)

Data set [2] concerns mice treated with 1-methyl-4-phenyl-1,2,3,6-tetrahydropyridine (MPTP). Description: Functional activity in a model of mice treated with MPTP (striatal dopamine, TH mRNA in substantia nigra). The conditions noted are these: for action of MPTP (decrease in dopamine level in the striatum and in TH expression level in the substantia nigra): C57BL6/J mice, compound orally twice a day for 11 days, MPTP 20 mg/kg ip once a day for 5 days, FIGS. 1 and 2. The data set is classed as in vivo. The protocol:
3. Study of the Functional Activity in a Mouse Model
A third series of […] tests was carried out with the compounds according to the invention, for the purpose of verifying that the molecules indeed have the expected neuroprotective effect.
The compounds of examples 10 and 118 were tested on a model of mice treated with 1-methyl-4-phenyl-1,2,3,6-tetrahydropyridine (MPTP) in order to confirm their potential activity. MPTP is a neurotoxin which causes the permanent symptoms of Parkinson's disease by destroying the dopaminergic neurons in the substantia nigra. The following protocol: was used.
Male C57BL6/J mice, 10-12 weeks old at the beginning of the studies, were divided up into groups of 12 animals. The compounds wee administered orally, twice a day, for 11 days in total. The administration began 3 days before the treatment with the MPTP toxin at 20 mg/kg. The MPTP was administered once a day by intraperitoneal injection, for 5 days. The admistration of the compounds was continued during the 5 days of MPTP treatment and then for a further 3 days after the MPTP treatment. One group of mice received, orally, the carrier alone (solution of methylcellulose at 1%, 0.1% poloxamer). The annuals were eythanized after rhe final gavage and the striatum and the substantia nigra were removed. The dopamine was extracted from the striatum and the amount of dopamine (DA), expressed in ng per g of striatum (mean±SEM), was measured by high-performance liquid chromatography (HPLC) with electrochemical detection. The messenger RNAs were isolated from the substantia nigra, and the expression level of the mRNAs encoding tyrosine hydroxylase (TH) was measured by quantitative PCR.
The results obtained were reported in appended FIGS. 1 and 2.

Data set [3] concerns dopaminergic neurons of primary culture of rat embryo mesencephalon treated with MPP+. Description: Neuroprotection in primary culture of rat embryo mesencephalon treated with MPP+ (count of tyrosine hydroxylase expressing cells). The format is cell-based. To be noted: recombinant human BDNF 10 ng/mL = 100%, 2 days with MPP+. A digest of the protocol: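 Rat embryo (E15) mesencephalon cultures, 5 days, then MPP+ with or without compound on day 6 for 2 days. Tyrosine hydroxylase-immunolabelled cells counted by image analysis; activity expressed as percent of recombinant human BDNF (10 ng/mL) reference, set at 100%.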

SMILES strings stand for the structures.

For the compound `CC1(C)CCC(C)(C)c2cc(-c3cccc(N4CC(C(=O)O)C4)c3)ccc21` [Example 10, 1-[5-(1,1,4,4-tetrametyltetralin-6-yl)phenyl]azetidine-3-carboxylic acid], in data set [1], the AUC stood at 25700 ng·h/mL and the peak level (Cmax) was 8760 ng/mL. At NURR-1/RXRα, the Emax was 84% and the EC50 worked out at 0.008 µM. In addition, the “action of MPTP (decrease in dopamine level in the striatum and in TH expression level in the substantia nigra)” value in data set [2] is “decrease the action of MPTP in a dose-dependent manner”. Moreover, the “percentage of activity relative to the BDNF reference” value in data set [3] (compound 1 μM) turned out to be 44%. Besides, the “percentage of activity relative to the BDNF reference” value in data set [3] (compound 10 μM) amounted to 74%.

Turning to `CC(C)CC1CN(c2cccc(N3CC(C(=O)O)C3)c2)c2ccc(C(F)(F)F)cc2O1` (stereo not drawn) [Example 118, 1-[3-[2-isobutyl-7-(trilfuoromethyl)-2,3-dihydro-1,4-benzoxazin-4-yl]phenyl]azetidine-3-carboxylic acid], in data set [1], the AUC amounted to 9820 ng·h/mL and the highest level (Cmax) was 4600 ng/mL. On NURR-1/RXRα, the Emax was determined as 83% and the concentration giving a half-maximal response (EC50) is 0.031 µM. Besides, the “action of MPTP (decrease in dopamine level in the striatum and in TH expression level in the substantia nigra)” value in data set [2] is recorded as “decrease the action of MPTP in a dose-dependent manner”. For the same compound, the “tyrosine hydroxylase (TH) expression level (mRNA, substantia nigra, quantitative PCR)” value in data set [2] (orally twice a day for 11 days, MPTP-treated mice) is on record as “capable of re-establishing the tyrosine hydroxylase expression level in the brain”. Moreover, in data set [3] (compound 1 μM), the “percentage of activity relative to the BDNF reference” value is reported as 81%. Moreover, in data set [3] (compound 10 μM), the “percentage of activity relative to the BDNF reference” value turned out to be 61%.

Usually Cmax stands for the peak of the concentration-time curve. As usually defined, the Emax is the greatest response seen or fitted, relative to the assay's reference. For orientation: EC50 means the concentration at which the effect is half-maximal.

(Values after patent publication US20170066717A1, “NEW PHENYLAZETIDINECARBOXYLATE OR -CARBOXAMIDE COMPOUNDS” (INVENTIVA, priority 2014, published 2017).)
